Read-outs that look alike come from different tables or passages of the source.
Key:
[1] = test system: plasma lipids obtained from apoE−/− mice; assay: Ex vivo oxidizability of plasma lipids (aqueous peroxyl radical generator); type: in vivo; conditions: pooled plasma of probucol-treated apoE−/− mice, 5 mM MPH, 37° C.
Experimental: Pooled plasma obtained from control (open symbols) or probucol-treated (closed symbols) mice was exposed to 5 mM of the aqueous peroxyl radical generator MPH and incubated under air at 37° C. […] Data shown are mean±SD of a single oxidation experiment performed in triplicate using pooled plasma. Where error bars are not shown, error is smaller than the symbol.
(§1) Plasma was obtained from control and probucol mice and aliquots frozen for subsequent determination of lipids. Separate aliquots were acidified with metaphosphoric acid (5%) to stabilize vitamin C prior to freezing and storage at −80° C. The remainder was pooled appropriately and used for ex vivo oxidation initiated by the peroxyl radical generator AAPH and lipoprotein separation by FPLC with UV280nm detection, as described in J Lipid Res. 1999;40:1104-1112.
Enhanced resistance of plasma lipoproteins to oxidation is often used as a measure of antioxidant efficacy. Therefore, we examined MPH-induced oxidation of pooled plasma from control and treated animals. […] These observations can be explained readily on the basis of tocopherol-mediated peroxidation.

[2] = Plasma drug level of bisphenol; type: in vivo, mice; conditions: for concentration at 14 weeks: male, apoE−/−;LDLr−/−, mouse, plasma, oral, 0.03 % (w/w) in chow, mice ranked by plasma drug level
Experimental: Male apoE−/−;LDLr−/− mice (59 total), were maintained on standard R3 chow from weaning to 8 weeks of age (young controls, n=9). Thereafter mice received R3 chow with (n=25) or without supplemented bisphenol (n=25) for an additional 14 weeks. Standard R3-mouse chow was fortified with bisphenol at 0.03% (w/w), a level of supplementation shown in pilot experiments to afford circulating concentrations of the drug of ˜200 μM, considered suitable to test the effect of the co-antioxidant on atherogenesis in this animal model. At 22 weeks of age 10 and 15 mice of each group were used for biochemical and histological analyses, respectively. Due to the small size, it was necessary to pool aortas to yield sufficient material for biochemical analyses.
Analyses of oxidised and non-oxidised lipids were carried out by RP-HPLC as described in Example 1 except that in some instances UV234 nm rather than post-column chemiluminescence detection was used to measure C18:2-OOH and the corresponding hydroxides (together referred to as CE-O(O)H) which show similar retention times under these chromatographic conditions. α-TQ, α-TOH, α-tocotrienol, D-isosascorbate and ascorbate were determined by HPLC with electrochemical detection. For oxidation of plasma, unesterified cholesterol (which remained non-oxidised in these experiments) was employed as internal standard for all polyunsaturated, lipid-soluble components analysed. Bisphenol and diphenoquinone were analysed by RP-HPLC: flow 1.5 mL/min, 100% solvent A (MeCN/MeOH/H20 10:10:3, v/v/v) for 0-15 min monitored at 270 nm, followed by 50% solvent A and B (MeCN/MeOH 1:1, v/v) for 15-22 min at 242 nm and then 100% B for 22-28 min at 420 nm. Bisphenol and diphenoquinone eluted at 9 and 27 min, respectively. All compounds were quantified by peak area comparison with authentic standards. […]
Unless otherwise stated lipid and antioxidant levels are expressed as pmol/mg protein. LH, lipid containing bisallylic hydrogens. §Values are expressed as nmol/mg protein. […]

[3] = test system: tocopherol-mediated peroxidation (TMP); assay: Anti-TMP index; type: biochemical
[4] = test system: atherosclerosis in apoE−/−;LDLr−/− mice; assay: Evaluation of atherosclerosis (intima volume, descending thoracic aorta); type: in vivo; conditions: bisphenol for 14 weeks
Experimental: Aortic lesions were assessed in segments centered around the third pair of intercostal artery branches in the descending thoracic aorta. Briefly, the fixed aortas were dehydrated in ethanol, cleared with xylene and embedded in paraffin. Serial sections (10 in total; each 2-3 μm thick and 100 μm apart) were cut and stained using Weigerts hematoxylin-van Gieson. Aortic thickening was assessed as the total volume of intima in the segment investigated in bisphenol-treated versus control samples.
Aortic volumes were determined by planimetry, using a Lucivid device (MicroBrightField, Colchester, Vermont, […]) attached to a Leitz DRM microscope that allowed the superposition of a computer monitor onto the cross sectional image.

[5] = Probucol and metabolite levels in aorta and plasma; type: in vivo; conditions: apoE−/− mice, 1% probucol, 24 weeks
Experimental: Male C57BL/6J mice, homozygous for the disrupted apoE gene (apoE−/−) were fed standard chow (Lab-Feed, Sydney, Australia) until aged 10 weeks.
Lipid-soluble antioxidants and lipids were quantified by HPLC as described in FASEB J. 1999;13:667-675. For ascorbate analysis, frozen acidified samples were thawed, diluted with DPBS to adjust the pH to 7.4 and then immediately subjected to HPLC. Plasma triglycerides were determined enzymatically (Boehringer, Mannheim, Germany).
Pooled aortas were snap frozen in liquid nitrogen, pulverised, resuspended in Buffer A, homogenised and then either treated with metaphosphoric acid (for ascorbate) or extracted and the hexane fraction analysed for lipid-soluble antioxidants, cholesterol (C), choleseteryl esters (CE), lipid hydroperoxides (LOOH) and cholesteryl ester hydroxides (CE-OH) by HPLC as described in Methods Enzymol. 1994;233:469-489. LOOH and CE-OH were measured as markers of lipoprotein lipid oxidation, as they are the primary and major oxidation products formed when lipoproteins from apoE−/− mice undergo oxidation. […] All compounds were quantified by peak area comparison with authentic standards, and protein determined.

[6] = test system: plasma lipoproteins of apoE−/− mice; assay: Lipids and antioxidants in lipoprotein fractions (size exclusion FPLC of pooled plasma); type: in vivo; parameters: VLDL C / VLDL C18:2 / VLDL -TOH / VLDL Total CoQ / LDL C / LDL C18:2 / LDL -TOH / LDL Total CoQ / HDL C / HDL C18:2 / HDL -TOH / HDL Total CoQ: unit not given here; conditions: 24 weeks
Experimental: as §1
Two consecutive separations each employing 300 μL undiluted plasma were carried out. The corresponding eluents from both injections were collected, pooled according to fractions corresponding to very low-density lipoprotein (VLDL), LDL, and HDL plus mouse serum albumin (see FIG. 3) and then extracted and analysed for lipids and antioxidants.

## CC(C)(C)c1cc(-c2cc(C(C)(C)C)c(O)c(C(C)(C)C)c2)cc(C(C)(C)C)c1O [Bisphenol, bisphenol]
[1]
  fate of the compound present in plasma during the oxidation period: oxidised into diphenoquinone
[2]; chow fortified with bisphenol at 0.03% (w/w)
  circulating concentrations of the drug, pilot experiments: ~200 µM
[2]; Bisphenol [high] aorta pool, read-out: plasma concentration of bisphenol, high group
  concentration at 14 weeks: 212 ± 50 µM
[2]; Bisphenol [low] aorta pool, read-out: plasma concentration of bisphenol, low group
  concentration at 14 weeks: 106 ± 40 µM
[3]
  Anti-TMP index: 3.2
[4]
  lesion size (intimal volume, descending thoracic aorta) vs age-matched controls: substantially decreased

## CC(C)(Sc1cc(C(C)(C)C)c(O)c(C(C)(C)C)c1)Sc1cc(C(C)(C)C)c(O)c(C(C)(C)C)c1 [Probucol, probucol]
[1]
  fate of the compound present in plasma during the oxidation period: remained unchanged
[1]; air
  onset and initial rate of CE-O(O)H accumulation vs control plasma: delayed and decreased
[5]; aorta
  drug metabolised to bisphenol or diphenoquinone, aorta: ~11%
[5]; plasma
  drug converted into bisphenol or diphenoquinone, plasma: ~8%
[6]; HDL fraction, 1% probucol
  HDL -TOH: 1.4
  HDL C: 0.12
  HDL C18:2: 531
  HDL C20:4: 24.0
  HDL Total CoQ: 0.1
[6]; LDL fraction, 1% probucol
  LDL -TOH: 7.8
  LDL C: 0.96
  LDL C18:2: 388
  LDL C20:4: 50.4
  LDL Total CoQ: 0.4
[6]; VLDL fraction, 1% probucol
  VLDL -TOH: 0.56
  VLDL C18:2: 340
  VLDL C20:4: 17.5
  VLDL Total CoQ: 0.1
[6]; VLDL fraction, pooled plasma, 1% w/w probucol
  VLDL C: 0.65
[6]; VLDL of pooled plasma, 1% probucol
  content of C in VLDL, % of the control value: 25%

— patent publication US20020115728A1, “Compositions and methods for treating cardiovascular disorders” (priority 2000, published 2002)
